Source: paper PMC8178976, “A biocompatible stapling reaction for in situ generation of constrained peptides” (Chemical Science, 2020)
Read-outs that look alike come from different tables or passages of the source. Where a SMILES comes first, the peptide text is derived from it. [ ]: non-standard residue; d: D form. Dab = NCC[C@H](N)C(=O)O

How the values were obtained:
[1] = biological target: Zika virus NS2B-NS3 protease (ZiPro) (Zika virus, UniProt A0A024B7W1); test: Zika virus NS2B-NS3 protease (ZiPro) inhibition assay; format: biochemical; conditions: for IC50: purified compounds, dose-response curve assuming Hill slope of 1, 3-parameter fit
Sequence of Zika virus NS2B-NS3 protease (ZiPro) (A0A024B7W1 1503-1679): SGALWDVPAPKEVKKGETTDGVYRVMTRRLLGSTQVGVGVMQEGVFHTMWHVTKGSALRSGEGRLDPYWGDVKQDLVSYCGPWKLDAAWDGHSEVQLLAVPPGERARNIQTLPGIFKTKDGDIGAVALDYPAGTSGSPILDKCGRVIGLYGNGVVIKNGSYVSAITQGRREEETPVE
Sequence of Zika virus NS2B-NS3 protease (ZiPro) (A0A024B7W1 1417-1468): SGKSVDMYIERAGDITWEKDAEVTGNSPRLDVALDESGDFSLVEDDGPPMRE
Protocol: Expression and purification of Zika virus protease NS2B-NS3 (ZiPro)
The unlinked Zika virus protease NS2B-NS3 construct referred to as bZiPro was obtained from Addgene (plasmid #86846) and expressed and purified exactly as described previously.1 Preparation of samples for ZiPro assay
Linear peptide samples 1a – 10a were prepared by adding 2 µl of 1a – 10a (10 mM in water) to 198 µl of buffer (10 mM Tris pH 7.5, 1 mM TCEP). The presence of TCEP is important to reduce cyclic disulfides. Stapled peptides 1b – 10b were prepared in situ by adding 2.5 µl of DCP (10 mM in DMSO) and 2 µl of 1a – 10a (10 mM in water) to 195.5 µl of buffer (10 mM Tris pH 7.5, 1 mM TCEP). Samples were incubated overnight, and the presence of stapled peptides 1b – 10b was confirmed by LC-MS (method B).
ZiP ro inhibition assay (Table 2)
The assay was conducted in 96-well plates (black U-bottom, Greiner Bio-One) in a total volume of 100 µl using 10 mM Tris pH 8.5, 1 mM CHAPS, 20% glycerol . All measurements were performed in triplicate. Purified peptides 1a – 10a and crude mixtures containing peptides 1b – 10b (prepared as described above) were incubated with ZiPro (0.3 nM) at final concentrations of 1 and 10 µM. The enzymatic reaction was initiated by addition of the substrate Bz-Nle-Ly s-Lys-Arg-A MC (Biosynt a n) at a final concentration of 5 µM.
Fluorescence was monitored by a fluorophotometer (Spectramax M2e plate reader, Molecular Devices) for 5 min at 460 nm using 360 nm excitation. Initial velocities were derived from the linear range, and 100% enzyme activity was defined as the initial velocity of blank wells containing no peptide. Percent inhibition was calculated as a fraction of 100% enzyme activity.
In situ stapling of 1b during ZiPro inhibition assay (Figure 3a)
All measurements were performed in triplicate. 2 µl of DCP (20 mM in DMSO) and 2 µl of 1a (10 mM in water) were mixed in 196 µl buffer (10 mM Tris pH 7.5, 4 mM TCEP). A blank was prepared by adding 2 µl of DCP (20 mM in DMSO) to 198 µl buffer (10 mM Tris pH 7.5, 4 mM TCEP). After 5 minutes, 10 µl of the reaction and blank mixtures were added to ZiPro (0.3 nM) in assay buffer (10 mM Tris pH 8.5, 1 mM CHAPS, 20% glycerol) to a total volume of 100 µl and incubated at room temperature. After incubation over 5, 20, 45, 90 and 180 minutes, substrate (5 µM) was added, and the enzyme activity was monitored as described above. Percent inhibition was calculated as a fraction of 100% enzyme activity considering each individual set of blanks.
Determination of IC50 values of 1a and 1b (Figure 3b-c)
All measurements were performed in triplicate using the ZiPro assay described above . Stock solutions (1 mM and 2 mM) of 1a were prepared in buffer (10 mM Tris pH 7.5, 4 m M T C EP) and used immediately. ZiPro inhibition of 1a was measured at 100, 50, 20, 5, 2. 5, 1, and 0. 5
µM. Stock solutions of purified 1b were made in water. ZiPro inhibition of 1b was measured at 50, 20, 5, 2.5, 1, 0.5, and 0.1 µM. The IC50 values were calculated using GraphPad Prism 8 using a 3 -parameter fit . […]

[2] = the molecule shown is the open-chain precursor, crosslinker bond, 0.6 mM

Compound: N=C(N)NCCC[C@H](NC(=O)[C@H](CCCCN)NC(=O)[C@@H](N)CCNC(=O)[C@@H](N)CS)C(=O)N[C@@H](CCCCN)C(=O)N[C@@H](CCNC(=O)[C@@H](N)CS)C(N)=O [1a] (H-[Dab](Cys)KRK[Dab](Cys)-NH2)
- IC50 ([1]; triplicate): 23 µM
- ZiPro inhibition (%) 1 μM ([1]; purified linear peptides at 1 μM, ZiPro 0.3 nM, substrate 5 μM, 10 mM Tris pH 8.5, 1 mM CHAPS, 20% glycerol, triplicate, n.i. = no inhibition): n.i.
- inhibition at 10 µM ([1]; purified linear peptides at 10 μM, ZiPro 0.3 nM, substrate Bz-Nle-Lys-Lys-Arg-AMC 5 μM, 10 mM Tris pH 8.5, 1 mM CHAPS, 20% glycerol, fluorescence, triplicate, n.i. = no inhibition): 23 ± 4%

Compound: N=C(N)NCCC[C@@H]1NC(=O)[C@H](CCCCN)NC(=O)[C@@H](N)CCNC(=O)[C@@H]2CSC(=N2)c2cccc(n2)C2=N[C@@H](CS2)C(=O)NCC[C@@H](C(N)=O)NC(=O)[C@H](CCCCN)NC1=O [1b]
- inhibition at 1 µM ([1]; in situ stapled peptides (crude mixtures, no purification) after 24 h incubation with DCP, 1 μM, ZiPro 0.3 nM, substrate 5 μM, pH 8.5, triplicate, n.i. = no inhibition): 27 ± 4%
- inhibition at 10 µM ([1]; in situ stapled peptides (crude mixtures, no purification) after 24 h incubation with DCP, 10 μM, ZiPro 0.3 nM, substrate 5 μM, pH 8.5, triplicate, n.i. = no inhibition): 60 ± 7%
- IC50 ([1]; triplicate): 0.8 µM

Compound: N#Cc1cccc(C#N)n1 [DCP, 2,6-dicyanopyridine, reference compound]
- effect of DCP on ZiPro activity ([1]; concentrations of DCP used in the assay): no significant effect

Compound: H-Cys-Lys-Arg-Lys-Dab(Cys)-NH2?
- ring closure, conversion ([2]; 25-membered ring, 2,6-dicyanopyridine (2 eq)/TCEP, 10 mM Tris pH 7.5 (aq, MeOH from DCP stock)): 76%

Compound: H-Cys-Lys-Arg-Lys-Dap(Cys)-NH2?
- ring closure, conversion ([2]; 24-membered ring, 2,6-dicyanopyridine (2 eq)/TCEP, 10 mM Tris pH 7.5 (aq, MeOH from DCP stock)): 83%

Compound: H-Cys-Lys-Arg-Lys-Lys(Cys)-NH2?
- ring closure, conversion ([2]; 27-membered ring, 2,6-dicyanopyridine (2 eq)/TCEP, 10 mM Tris pH 7.5 (aq, MeOH from DCP stock)): 83%

Compound: H-Cys-Lys-Arg-Lys-Orn(Cys)-NH2?
- ring closure, conversion ([2]; 26-membered ring, 2,6-dicyanopyridine (2 eq)/TCEP, 10 mM Tris pH 7.5 (aq, MeOH from DCP stock)): 79%

Compound: H-Dys-Lys-Arg-Lys-Dys-NH2
- ring closure, conversion ([2]; 30-membered ring, 2,6-dicyanopyridine (2 eq)/TCEP (6 eq), 10 mM Tris pH 7.5): 93%
- ring closure, conversion ([2]; 30-membered ring, 2,6-dicyanopyridine (2 eq)/TCEP, 10 mM Tris pH 7.5 (aq, MeOH from DCP stock)): 89%
- ring closure, conversion ([2]; 30-membered ring, 2,6-dicyanopyridine (8 eq)/TCEP, 10 mM Tris pH 7.5): 60%
